Measurements from patent US4466963A, “Pharmaceutical compositions” (John Wyeth & Brother Limited, priority 1982, dated 1984).

Tests used:
normal mice (tail flick) = test: tail flick latency (tail immersion in water at 50° C.); assay type: in vivo
Method: In a further experiment groups of 10 normal mice were given meptazinol (40 mg/kg), ibuprofen (240 mg/kg), a mixture containing these doses of meptazinol and ibuprofen or the requisite volume of vehicle po immediately after measuring the latency to a distinct tail flick (following tail immersion in water at 50° C.). Tail flick latencies were measured again at 30 min intervals post dosing. As the mean pre-dose latencies of mice subjected to the tail immersion procedure were so similar to one another comparisons of the actual latencies at each recording time were made (Student's "t" test).

rats (gastric erosion) = settings: well known for non-steroidal anti-inflammatory agents; cited from earlier work
[1] = test system: mice pretreated with carrageenin (hot-plate response); test: hot-plate response latency (brass hot-plate, 55° C.) of mice pretreated with carrageenin; assay type: in vivo; settings: for Increase in latency (sec) cf. pre-dose control / Latency (sec) pre-dose control: ibuprofen 240, meptazinol 40, combination 240 + 40 mg/kg po; for Latency (sec) pre-dose control: pre-dose baseline of the group, SEM on the line below
Method: For example in one method used to measure the antinociceptive effects of meptazinol, ibuprofen and combinations of the two drugs, groups of 9 mice were given 0.025 ml of 2% carrageenin (in saline) sc into the plantar surface of both hind feet 3.0 hours before treatment. The latency to a distinct response following placement of the mice on a brass hot-plate (55° C.) was measured immediately prior to dosing with vehicle (0.5% hydroxypropyl-methylcellulose in water) or with drug.
The antinociceptive response at each recording time (t) was defined as the reaction time of the mouse at time t minus the reaction time at t=0 (immediately prior to dosing).
The results after dosing with vehicle, ibuprofen (240 mg/kg), meptazinol (40 mg/kg) and a combination of ibuprofen (240 mg/kg)+meptazinol (40 mg/kg) are given in Table 1 below: […]

[2] = rats given 3H meptazinol; previous studies; cited from earlier work
[3] = brain concentration of meptazinol after administration of 3H meptazinol alone or with ibuprofen; assay type: in vivo, mice; settings: for brain concentration of meptazinol: meptazinol 40 mg/kg po, or meptazinol + ibuprofen 40 + 240
Method: In a further experiment the brain concentration of meptazinol was measured after administration of meptazinol alone or a combination of ibuprofen and meptazinol. Groups of mice were given meptazinol (40 mg/kg) alone or meptazinol+ibuprofen (40+240 mg/kg) po containing 25 μCi/mouse of^3 H meptazinol. Six mice from each group were decapitated at 30 min intervals after dosing. The brain of each animal was removed and after the removal of the cerebellum, pons and medulla the remainder was homogenised in 10 ml ice cold Tris buffer. This was immediately centrifuged at 20,000 rpm for 5 min then a single 1 ml aliquot of the supernatant was taken for counting.

[4] = 30 min post dosing, ibuprofen 240, meptazinol 40, combination 40 + 240 mg/kg po, x p < .05 cf meptazinol alone
[5] = 60 min post dosing, ibuprofen 240, meptazinol 40, combination 40 + 240 mg/kg po, xx p < .01 cf meptazinol alone
[6] = 90 min post dosing, ibuprofen 240, meptazinol 40, combination 40 + 240 mg/kg po
[7] = time 0 (pre-dose), ibuprofen 240, meptazinol 40, combination 40 + 240 mg/kg po, SEM on the line below
[8] = 30 min post dosing, *p < .02 cf vehicle, x p < .02 cf meptazinol alone
[9] = 60 min post dosing, *p < .02 cf vehicle
[10] = 90 min post dosing, x p < .02 cf meptazinol alone

Compound | Latency to a distinct tail flick (normal mice (tail flick); [4]) | Latency to a distinct tail flick (normal mice (tail flick); [5]) | Latency to a distinct tail flick (normal mice (tail flick); [6]) | Latency to a distinct tail flick (normal mice (tail flick); [7]) | Increase in latency (sec) cf. pre-dose control [1, 8] | Increase in latency (sec) cf. pre-dose control [1, 9] | Increase in latency (sec) cf. pre-dose control [1, 10] | Latency (sec) pre-dose control [1] | also measured
CC(C)Cc1ccc(C(C)C(=O)O)cc1 (stereo not drawn) [Ibuprofen, 2-(4-isobutylphenyl)propionic acid] | 2.75 s | 3.04 s | 3.94 s | 3.43 s | -0.72 s | -1.56 s | -1.30 s | 7.16 s | effect on the tail flick latency (normal mice (tail flick); ibuprofen alone, 240 mg/kg po): did not significantly affect the tail flick latency; gastric damage (rats (gastric erosion)): induce gastric damage; antinociceptive response ([1]; ibuprofen 240 mg/kg alone): did not produce any antinociceptive response
CCC1(c2cccc(O)c2)CCCCN(C)C1 (stereo not drawn) [Meptazinol, m-(3-ethylhexahydro-1-methyl[1H]azepin-3-yl) phenol] | 4.24 s | 4.85 s | 4.80 s | 3.43 s | 4.76 s | 3.00 s | 1.76 s | 6.41 s | tritium in the brain in the form of meptazinol [2]: virtually all; Latency to a distinct tail flick (normal mice (tail flick); 30 min post dosing, meptazinol 80 mg/kg po, ***p < .0001 cf vehicle control): 6.95 s; Latency to a distinct tail flick (normal mice (tail flick); 60 min post dosing, meptazinol 80 mg/kg po, **p < .01): 6.75 s; Latency to a distinct tail flick (normal mice (tail flick); 90 min post dosing, meptazinol 80 mg/kg po, ***p < .0001 cf vehicle control): 6.37 s; antinociceptive response (tail flick) (normal mice (tail flick); meptazinol 40 mg/kg alone): did induce a significant antinociceptive response; Latency to a distinct tail flick (normal mice (tail flick); time 0 (pre-dose), meptazinol 80 mg/kg po): 3.54 s; brain concentration of meptazinol ([3]; 30 min post treatment, **p < .01 cf meptazinol alone, (SEM not stated) on the line below): 18.4 Counts × 1000/min/g brain; brain concentration of meptazinol ([3]; 60 min post treatment): 12.0 Counts × 1000/min/g brain; brain concentration of meptazinol ([3]; 90 min post treatment, *p < .05 cf meptazinol alone): 7.4 Counts × 1000/min/g brain; brain concentration of meptazinol ([3]; 120 min post treatment, **p < .01 cf meptazinol alone): 4.7 Counts × 1000/min/g brain; concentration of tritium in the brain cf. same dose of meptazinol with 240 mg/kg ibuprofen ([3]; meptazinol 40 mg/kg, 30, 60 and 90 min post dosing): approximately half
